One series concerns the target T1, human ALX receptor (Homo sapiens, UniProt P25090).
T1 construct: expressed in transfected cells; host or cells: HEK cells
T1 sequence (P25090 1-351): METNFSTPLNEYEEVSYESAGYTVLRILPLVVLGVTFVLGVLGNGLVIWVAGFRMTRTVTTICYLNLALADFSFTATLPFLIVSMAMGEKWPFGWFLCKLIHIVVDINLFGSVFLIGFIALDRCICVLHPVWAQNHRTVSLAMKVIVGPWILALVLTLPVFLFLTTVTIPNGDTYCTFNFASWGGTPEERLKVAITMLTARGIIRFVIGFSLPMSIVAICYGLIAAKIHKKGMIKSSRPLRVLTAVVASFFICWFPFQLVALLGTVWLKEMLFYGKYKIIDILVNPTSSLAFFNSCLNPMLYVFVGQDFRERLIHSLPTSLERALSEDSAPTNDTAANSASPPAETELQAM
Put plainly: Competitive binding assay with [125I-Tyr]-Ac2-26 tracer on ALX-HEK transfected cells. The conditions noted are these: HEK cells overexpressing human ALX, 1x10^6 cells/ml; tracer 50nM; peptide 0.1nM-10μM; 1h, 4°C; mean of 3-4 independent experiments; read-out: IC50, displacement of 125I labelled Ac2-26 from ALX receptor. As to the method: Binding experiments were conducted as in [13]. Briefly FPR1-human embryonic kidney (HEK)–or ALX-HEK—transfected cells (1x10^6 cells/ml) were incubated with increasing concentrations of cold CR-AnxA1_2-50, CR-AnxA1_2-48 (0.1nM-10μM) or PBS and a fixed concentration (50nM) of [^125I-Tyr]-Ac2-26 for (1h, 4°C). Bound and unbound tracer were separated by filtration through Whatman GF/C glass microfibre filters (Kent, United Kingdom) using a vacuum manifold, and the amount of tracer bound to the cells was quantified by counting filters in a gamma-counter.

For series [1], the system named is activated human neutrophils. Put plainly: Neutrophil-mediated degradation (peptide remaining in incubations with activated human neutrophils). Format: in vitro ADME. The conditions noted are these: incubation with activated human neutrophils; compared to parent peptide CR-AnxA1_2-50; mean ± SEM of n = 4 distinct incubations. How it is done:
Therefore, we designed a peptide that in addition to having a substitution of Valine25 to Leucine, which we previously found to confer resistance to proteinease-3 and neutrophil elastae, also lacked Alanines at positions 49 and 50 (Fig 1A).
Fig 1 CR-AnxA1_2-48 is resistant to neutrophil mediated cleavage and selectively binds the ALX receptor. (A) Aminoacid sequences for CR-AnxA1_2–50 and CR-AnxA1_2–48 (B) Plots depicting the amount of peptide remaining at the indicated intervals in incubations of human neutrophil with CR-AnxA1_2–50 or CR-AnxA1_2–48. Results are mean ± SEM of n = 4 distinct incubations with different neutrophil preparations. *p < 0.05 versus AnxA1_2–48 incubations. (C,D) Binding affinity of CR-AnxA1_2–48 to (C) human ALX-overexpressing and (D) FPR1-overexpressing HEK cells was assessed in a competitive binding assay using [^125I]–Ac2-26. (E) Agonist activity of CR-AnxA1_2–48 was investigated using β-arrestin stably expressing FPR2/ALX. Results for C-E are mean ± SEM of 3–4 independent experiments. TEXT PRINTED IN THE PICTURE: (C) CR-ANXA12-48: IC50= 20 nM

Another series deals with ALX. The conditions noted are these: cited from earlier work. An excerpt:
The ALX receptor is a G-protein coupled receptor that mediates the biological actions of a number of pro-resolving molecules including the essential fatty acid derived specialized pro-resolving mediators Resolvin D1, Resolvin D3 and Lipoxin A4 [32].

Where “and” joins values, the source holds several entries; their conditions need not be identical. Equal values may be shown once. Where no end group is shown, it is not given here.

A word on the IC50: it is the midpoint of a concentration-inhibition curve. Take “AMVSEFLKQAWFIENEEQEYVQTLKSSKGGPGSAVSPYPTFNPSSDV-NH2 [CR-AnxA1_2-48]”: on human ALX receptor, the IC50 is ~20 nM and 20 nM. For the same substance, the “Resistance to neutrophil mediated cleavage (amount of peptide remaining)” value in series [1] was “significant increase in resistance to neutrophil mediated cleavage”.

In the case of fMLF, the “Binding affinity to ALX relative to FPR1” value in the series with ALX was “about a log order lower”.

The record behind these values is article PMC5391094, “Characterizing the anti-inflammatory and tissue protective actions of a novel Annexin A1 peptide” (PLoS ONE, 2017).
